Experimental data taken from US6784137B2, “6-aryl-4-aminopicolinates and their use as herbicides” (Dow AgroSciences LLC, priority 2001, dated 2004).
Where two headings read alike, the source gives them in different places.

Assays:
[1] = test system: Wheat(var. Merica) (Triticum aestivum); test: Postemergence herbicidal activity, selectivity to wheat; type: in vivo; conditions: post-emergence, 336 h, Table 3, rate 62.5 (unit inferred), crop injury, read-out: Post-emergent % control TRZAS
Protocol: Seeds of the desired test plant species were planted in Grace-Sierra MetroMix® 306 planting mixture, which typically has a pH of 6.0 to 6.8 and an organic matter content of about 30 percent, in plastic pots with a surface area of 64 square centimeters. When required to ensure good germination and healthy plants, a fungicide treatment and/or other chemical or physical treatment was applied. The plants were grown for 7-21 days in a greenhouse with an approximate 15 hr photoperiod which was maintained at about 23-29° C. during the day and 22-28° C. during the night. Nutrients and water were added on a regular basis and supplemental lighting was provided with overhead metal halide 1000-Watt lamps as necessary. The plants were employed for testing when they reached the first or second true leaf stage. A weighed amount, determined by the highest rate to be tested, of each test compound was placed in a 20 mL glass vial and was dissolved in 4 mL of a 97:3 v/v (volume/volume) mixture of acetone and dimethyl sulfoxide (DMSO) to obtain concentrated stock solutions. […] The concentrated stock solutions obtained were diluted with an aqueous mixture containing acetone, water, isopropyl alcohol, DMSO, At plus 411 F crop oil concentrate, and Triton X-155 surfactant in a 48.5:39:10:1.5:1.0:0.02 v/v ratio to obtain spray solutions of known concentration. The solutions containing the highest concentration to be tested were prepared by diluting 2 mL aliquots of the stock solution with 13 mL of the mixture and lower concentrations were prepared by serial dilution of the stock solution. Approximately 1.5 mL aliquots of each solution of known concentration were sprayed evenly onto each of the test plant pots using a DeVilbiss atomizer driven by compressed air pressure of […] (140 to 280 kiloPascals) to obtain thorough coverage of each plant. Control plants were sprayed in the same manner with the aqueous mixture. In this test an application rate of 1 ppm results in the application of approximately 1 g/Ha. The treated plants and control plants were placed in a greenhouse as described above and watered by sub-irrigation to prevent wash-off of the test compounds. After 2 weeks the condition of the test plants as compared with that of the untreated plants was determined visually and scored on a scale of 0 to 100 percent where 0 corresponds to no injury and 100 corresponds to complete kill.

[2] = test system: Pigweed (redroot) (Amaranthus retroflexus); test: Preemergence herbicidal activity, soil spray; type: in vivo; conditions: Amaranthus retroflexus, pre-emergence, 504 h, Table 5, visual score after 3 weeks, read-out: Pre-emergent % control AMARE; for pest or weed control at 560 ppm: rate 560 ppm; for pest or weed control at 140 ppm: rate 140 ppm
Procedure, shortened: (§1)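 Test species were planted first, then the soil of each pot was sprayed with compound solutions of known concentration made in water containing 0.1% Tween 155 from acetone–DMSO stocks. The growth matrix was a 70:30 loam and sand blend with pH near 8.1.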

[3] = test system: Giant Foxtail (Setaria faberi); test: Preemergence herbicidal activity, soil spray; type: in vivo; conditions: Setaria faberi, pre-emergence, 504 h, Table 5, visual score after 3 weeks, read-out: Pre-emergent % control SETFA; for pest or weed control at 560 ppm: rate 560 ppm; for pest or weed control at 140 ppm: rate 140 ppm
Procedure, shortened: as §1

[4] = test system: Crabgrass(large) (Digitaria sanguinalis); test: Preemergence herbicidal activity, soil spray; type: in vivo; conditions: Digitaria sanguinalis, pre-emergence, 504 h, Table 5, visual score after 3 weeks, read-out: Pre-emergent % control DIGSA; for pest or weed control at 560 ppm: rate 560 ppm; for pest or weed control at 140 ppm: rate 140 ppm
Procedure, shortened: as §1

[5] = test system: Lambsquarter (Chenopodium album); test: Preemergence herbicidal activity, soil spray; type: in vivo; conditions: Chenopodium album, pre-emergence, 504 h, Table 5, visual score after 3 weeks, read-out: Pre-emergent % control CHEAL; for pest or weed control at 560 ppm: rate 560 ppm, 100 complete kill or no germination; for pest or weed control at 140 ppm: rate 140 ppm
Procedure, shortened: as §1

[6] = test system: Pigweed (redroot) (Amaranthus retroflexus); test: Postemergence herbicidal activity, greenhouse spray; type: in vivo; conditions: Amaranthus retroflexus, post-emergence, 336 h; Table 3; rate 62.5 (unit inferred); visual score after 2 weeks; read-out: Post-emergent % control AMARE
Procedure, shortened: (§2)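 Postemergence application by compressed-air atomizer ([…]) onto plants at the 1-2 true leaf stage; rates set by serial dilution of acetone:DMSO stock into the spray carrier. Plants were kept in a greenhouse with ~15 hr photoperiod and sub-irrigated.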

[7] = test system: Cocklebur (Xanthium strumarium); test: as above; type: in vivo; conditions: Xanthium strumarium, post-emergence, 336 h, visual score after 2 weeks, read-out: Post-emergent % control XANST; for pest or weed control at 250 ppm: rate 250 ppm; for pest or weed control at 125 ppm: rate 125 ppm; for pest or weed control at 500 ppm: rate 500 ppm, 0 no injury, 100 complete kill
Procedure, shortened: as §2

[8] = test system: Barnyardgrass (Echinochloa crus-galli); test: as above; type: in vivo; conditions: Echinochloa crus-galli, post-emergence, 336 h, visual score after 2 weeks, read-out: Post-emergent % control ECHCG; for pest or weed control at 250 ppm: rate 250 ppm; for pest or weed control at 125 ppm: rate 125 ppm; for pest or weed control at 500 ppm: rate 500 ppm
Procedure, shortened: as §2

[9] = test system: Yellow nutsedge (Cyperus esculentus); test: as above; type: in vivo; conditions: Cyperus, post-emergence, 336 h, visual score after 2 weeks, read-out: Post-emergent % control CYPES; for pest or weed control at 250 ppm: rate 250 ppm; for pest or weed control at 125 ppm: rate 125 ppm; for pest or weed control at 500 ppm: rate 500 ppm
Procedure, shortened: as §2

[10] = test system: Lambsquarter (Chenopodium album); test: as above; type: in vivo; conditions: Chenopodium album, post-emergence, 336 h, visual score after 2 weeks, read-out: Post-emergent % control CHEAL; for pest or weed control at 250 ppm: rate 250 ppm; for pest or weed control at 125 ppm: rate 125 ppm; for pest or weed control at 500 ppm: rate 500 ppm
Procedure, shortened: as §2

Structure (SMILES)	pest or weed control at 62.5 µg/mL [1] [%]	pest or weed control at 560 ppm [2] [%]	pest or weed control at 560 ppm [3] [%]	pest or weed control at 560 ppm [4] [%]	pest or weed control at 560 ppm [5] [%]	pest or weed control at 62.5 µg/mL [6] [%]	melting point [°C]	pest or weed control at 140 ppm [2] [%]	pest or weed control at 140 ppm [3] [%]	pest or weed control at 140 ppm [4] [%]	pest or weed control at 140 ppm [5] [%]	pest or weed control at 500 ppm ([7]; Table 1) [%]	pest or weed control at 500 ppm ([8]; Table 1) [%]	pest or weed control at 500 ppm ([9]; Table 1) [%]	pest or weed control at 500 ppm ([10]; Table 1) [%]	also measured
Cc1ccc(-c2cc(N)c(Cl)c(C(=O)O)n2)cc1 [Compound 136, 4-Amino-3-chloro-6-(4-methylphenyl)pyridine-2-carboxylic acid]	0	100	100	100	100	100	166 to 167	–	–	–	–	–	–	–	–	pest or weed control at 250 ppm ([7]; Table 1): 100%; pest or weed control at 125 ppm ([7]; Table 2): 100%; pest or weed control at 250 ppm ([8]; Table 1): 70%; pest or weed control at 125 ppm ([8]; Table 2): 70%; pest or weed control at 250 ppm ([9]; Table 1): 80%; pest or weed control at 125 ppm ([9]; Table 2): 70%; pest or weed control at 250 ppm ([10]; Table 1): 100%; pest or weed control at 125 ppm ([10]; Table 2): 100%
Cc1ccc(-c2cc(N)c(Cl)c(C(=O)O)n2)cc1C [Compound 132, 4-amino-3-chloro-6-(3,4-dimethylphenyl)pyridine-2-carboxylic acid]	0	–	–	–	–	70	192 to 194	90	95	100	100	100	80	0	90	–
Nc1cc(-c2ccc3c(c2)OCO3)nc(C(=O)O)c1Cl [Compound 153, 4-Amino-3-chloro-6-(3,4-methylenedioxyphenyl)pyridine-2-carboxylic acid]	10	100	100	100	100	100	182	–	–	–	–	100	95	70	98	–
Cc1ccc(-c2cc(N)c(Cl)c(C(=O)O)n2)c(F)c1 [Compound 158, 4-Amino-3-chloro-6-(2-fluoro-4-methylphenyl)pyridine-2-carboxylic acid]	–	–	–	–	–	–	187 to 189	100	100	98	100	100	95	70	100	–
Nc1cc(-c2ccc(C(F)(F)F)cc2)nc(C(=O)O)c1Cl [Compound 152, 4-Amino-3-chloro-6-[4-(trifluoromethyl)phenyl]pyridine-2-carboxylic acid]	–	–	–	–	–	–	175 to 176	95	100	100	100	–	–	–	–	pest or weed control at 125 ppm ([7]; Table 1): 100%; pest or weed control at 125 ppm ([8]; Table 1): 90%; pest or weed control at 125 ppm ([9]; Table 1): 95%; pest or weed control at 125 ppm ([10]; Table 1): 100%
Cc1ccc(-c2nc(C(=O)O)c(F)c(N)c2F)cc1 [Compound 203, 4-Amino-3,5-difluoro-6-(4-methylphenyl)pyridine-2-carboxylic acid]	–	–	–	–	–	–	144 to 145	100	85	100	95	100	95	95	100	–
Cc1cc(-c2cc(N)c(Cl)c(C(=O)O)n2)ccc1Cl [Compound 149, 4-Amino-3-chloro-6-(4-chloro-3-methylphenyl)pyridine-2-carboxylic acid]	–	–	–	–	–	–	190 to 191	100	100	100	100	100	95	100	100	–
COC(=O)c1nc(-c2ccc(Cl)cc2)c(F)c(N)c1F [Compound 90, Methyl 4-amino-3,5-difluoro-6-(4-chlorophenyl)pyridine-2-carboxylate]	–	100	100	100	100	–	165 to 166	–	–	–	–	100	98	90	100	–
COc1ccccc1-c1cc(N)c(Cl)c(C(=O)O)n1 [Compound 139, 4-Amino-3-chloro-6-(2-methoxyphenyl)pyridine-2-carboxylic acid]	–	100	100	100	100	–	177 to 179	–	–	–	–	–	–	–	–	pest or weed control at 250 ppm ([7]; Table 1): 100%; pest or weed control at 250 ppm ([8]; Table 1): 70%; pest or weed control at 250 ppm ([9]; Table 1): 30%; pest or weed control at 250 ppm ([10]; Table 1): 95%
